Measurements taken from patent US9695155B2, “Herbicidal substituted pyrimidinyloxy benzene compounds” (E. I. DU PONT DE NEMOURS AND COMPANY, priority 2013, dated 2017).

What was measured:
[1] = test system: wheat; experiment: Test A preemergence; assay type: in vivo, Triticum aestivum
Procedure, shortened: (§1)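 Scoring: eye-based comparison with untreated controls, 0 for no effect through 100 for complete control, at about day 10. Treatments: directed soil spray preemergence; foliar spray postemergence on 2–10 cm plants at the one- to two-leaf stage. Medium: loam soil with sand.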

[2] = test system: oilseed rape; experiment: Test C preemergence; assay type: in vivo, Brassica napus; conditions: for Oilseed Rape plant response rating: preemergence, scale 0 (no effect) to 100 (complete control)
Procedure, shortened: (§2)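 Whole-plant greenhouse test with surfactant-containing solvent formulation, applied preemergence to sown loam–sand pots or postemergence to 2–18 cm plants. Scored by eye 13 to 15 days on, 0–100 scale.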

[3] = test system: ragweed; experiment: Test C preemergence; assay type: in vivo, Ambrosia elatior; conditions: preemergence, scale 0 (no effect) to 100 (complete control)
Procedure, shortened: as §2

[4] = test system: morningglory; experiment: Test C postemergence; assay type: in vivo, Ipomoea coccinea; conditions: for Plant response rating (0 to 100), Morningglory: postemergence; for Plant response rating, Morningglory: Postemergence, scale 0 to 100 (0 no effect, 100 complete control)
Procedure, shortened: as §2

[5] = test system: morningglory; experiment: Test A postemergence; assay type: in vivo, Ipomoea spp.; conditions: 0 to 100 scale where 0 is no effect and 100 is complete control
Procedure, shortened: as §1

[6] = test system: pigweed; experiment: Test C postemergence; assay type: in vivo, Amaranthus retroflexus; conditions: for Plant response rating (0 to 100), Pigweed: postemergence; for Plant response rating, Pigweed: Postemergence, scale 0 to 100 (0 no effect, 100 complete control)
Procedure, shortened: as §2

[7] = test system: Heteranthera limosa; experiment: Test B flooded paddy test; assay type: in vivo; conditions: Flood, 250 g ai/ha; 0 to 100 scale where 0 is no effect and 100 is complete control
Procedure, shortened: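 Flooded to 3 cm at the 2-leaf stage, pots received compound through the paddy water and were kept at that depth under greenhouse conditions. After 13–15 days, effect was rated by eye relative to controls, 0 = none and 100 = complete control.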

[8] = test system: corn; experiment: Test C postemergence; assay type: in vivo, Zea mays; conditions: for Plant response rating (0 to 100), Corn: postemergence; for Plant response rating, Corn: Postemergence, scale 0 to 100 (0 no effect, 100 complete control)
Procedure, shortened: as §2

[9] = test system: wild oat; experiment: Test C postemergence; assay type: in vivo, Avena fatua; conditions: for Plant response rating (0 to 100), Oat, Wild: postemergence; for Plant response rating, Oat, Wild: Postemergence, scale 0 to 100 (0 no effect, 100 complete control)
Procedure, shortened: as §2

[10] = test system: giant foxtail; experiment: Test A postemergence; assay type: in vivo, Setaria faberii; conditions: 0 to 100 scale where 0 is no effect and 100 is complete control
Procedure, shortened: as §1

[11] = test system: corn; experiment: Test A postemergence; assay type: in vivo, Zea mays
Procedure, shortened: as §1

[12] = test system: Italian ryegrass; experiment: Test C preemergence; assay type: in vivo, Lolium multiflorum; conditions: for Ryegrass, Italian plant response rating: preemergence, scale 0 (no effect) to 100 (complete control)
Procedure, shortened: as §2

[13] = test system: barnyardgrass; experiment: Test A preemergence; assay type: in vivo, Echinochloa crus-galli
Procedure, shortened: as §1

[14] = test system: large (Lg) crabgrass; experiment: Test A preemergence; assay type: in vivo, Digitaria sanguinalis
Procedure, shortened: as §1

[15] = test system: kochia; experiment: Test C postemergence; assay type: in vivo, Kochia scoparia; conditions: for Plant response rating (0 to 100), Kochia: postemergence; for Plant response rating, Kochia: Postemergence, scale 0 to 100 (0 no effect, 100 complete control)
Procedure, shortened: as §2

[16] = 125 g ai/ha, 0 to 100 scale where 0 is no effect and 100 is complete control
[17] = 500 g ai/ha, 0 to 100 scale, 0 no effect, 100 complete control, approx. 10 days
[18] = Preemergence, 31 g ai/ha, scale 0 to 100, 0 no effect, 100 complete control

Structure (SMILES): N#Cc1cccc(Oc2ncc(F)cn2)c1-n1cc(Cl)cn1 [Compound 73]
- Plant response rating, Wheat [1, 16]: 0
- Wheat plant response rating [1, 17]: 80
- Oilseed Rape plant response rating ([2]; 62 g ai/ha): 95
- Oilseed Rape plant response rating ([2]; 125 g ai/ha): 100
- Oilseed Rape plant response rating ([2]; 250 g ai/ha): 100
- Plant response rating, Oilseed Rape [2, 18]: 85
- Ragweed plant response rating ([3]; 62 g ai/ha): 75
- Ragweed plant response rating ([3]; 125 g ai/ha): 85
- Ragweed plant response rating ([3]; 250 g ai/ha): 85
- Plant response rating (0 to 100), Morningglory ([4]; 125 g ai/ha): 85
- Plant response rating (0 to 100), Morningglory ([4]; 250 g ai/ha): 85
- Plant response rating, Morningglory ([4]; 31 g ai/ha, 13 to 15 days): 65
- Plant response rating, Morningglory ([4]; 62 g ai/ha): 65
- Plant response rating, Morningglory ([5]; 125 g ai/ha): 90
- Plant response rating, Morningglory ([5]; 500 g ai/ha): 100
- Plant response rating (0 to 100), Pigweed ([6]; 125 g ai/ha): 80
- Plant response rating (0 to 100), Pigweed ([6]; 250 g ai/ha): 90
- Plant response rating, Pigweed ([6]; 31 g ai/ha, 13 to 15 days): 45
- Plant response rating, Pigweed ([6]; 62 g ai/ha): 70
- Plant response rating, Ducksalad [7]: 70
- Plant response rating (0 to 100), Corn ([8]; 125 g ai/ha): 10
- Plant response rating (0 to 100), Corn ([8]; 250 g ai/ha): 10
- Plant response rating, Corn ([8]; 31 g ai/ha, 13 to 15 days): 5
- Plant response rating, Corn ([8]; 62 g ai/ha): 5
- Plant response rating (0 to 100), Oat, Wild ([9]; 125 g ai/ha): 10
- Plant response rating (0 to 100), Oat, Wild ([9]; 250 g ai/ha): 15
- Plant response rating, Oat, Wild ([9]; 31 g ai/ha, 13 to 15 days): 5
- Plant response rating, Oat, Wild ([9]; 62 g ai/ha): 5
- Plant response rating, Foxtail, Giant ([10]; 125 g ai/ha): 90
- Plant response rating, Foxtail, Giant ([10]; 500 g ai/ha): 100
- Plant response rating, Corn [11, 16]: 40
- Plant response rating, Corn ([11]; 500 g ai/ha, 0 to 100 scale, 0 no effect, 100 complete control): 80
- Ryegrass, Italian plant response rating ([12]; 62 g ai/ha): 5
- Ryegrass, Italian plant response rating ([12]; 125 g ai/ha): 55
- Ryegrass, Italian plant response rating ([12]; 250 g ai/ha): 70
- Plant response rating, Ryegrass, Italian [12, 18]: 0
- Plant response rating, Barnyardgrass [13, 16]: 90
- Barnyardgrass plant response rating [13, 17]: 100
- Plant response rating, Crabgrass, Large [14, 16]: 100
- Crabgrass, Large plant response rating [14, 17]: 100
- Plant response rating (0 to 100), Kochia ([15]; 125 g ai/ha): 90
- Plant response rating (0 to 100), Kochia ([15]; 250 g ai/ha): 90
- Plant response rating, Kochia ([15]; 31 g ai/ha, 13 to 15 days): 80
- Plant response rating, Kochia ([15]; 62 g ai/ha): 85
